From ChEMBL document CHEMBL5523766 (J Med Chem, 2024)

Key:
PC-3 = experiment: Antiproliferative activity against human PC-3 cells assessed as inhibition of cell growth incubated for 72 hrs by MTS assay; assay type: functional, cell-based; settings: PC-3, 72 h
DLD-1 = experiment: Antiproliferative activity against human DLD-1 cells assessed as inhibition of cell growth incubated for 72 hrs by MTS assay; assay type: functional, cell-based; settings: DLD-1, 72 h
OCI-Ly10 = experiment: Antiproliferative activity against human OCI-Ly10 cells assessed as inhibition of cell growth incubated for 72 hrs by MTS assay; assay type: functional, cell-based; settings: OCI-Ly10, 72 h
Granta-519 [1] = experiment: Induction of apoptosis in human Granta-519 cells assessed as viable cells at 2000 nM incubated for 48 hrs by Annexin-V-FITC/propidium iodide staining based flow cytometry (reference value: 92.7 %); assay type: functional; settings: read-out: Activity
LoVo = experiment: Antiproliferative activity against human LoVo cells assessed as inhibition of cell growth incubated for 72 hrs by MTS assay; assay type: functional, cell-based
Granta-519 [2] = experiment: Induction of cell cycle arrest in human Granta-519 cells assessed as accumulation of cells at S phase at 2000 nM incubated for 24 hrs by propidium iodide staining based flow cytometry (reference value: 44.81 %); assay type: functional
A2780 = experiment: Antiproliferative activity against human A2780 cells assessed as inhibition of cell growth incubated for 72 hrs by MTS assay; assay type: functional, cell-based; settings: A2780, 72 h
SUD4 = experiment: Antiproliferative activity against human SU-DHL-4 cells assessed as inhibition of cell growth incubated for 72 hrs by MTS assay; assay type: functional, cell-based; settings: SU-DHL-4, 72 h
Granta-519 [3] = experiment: Antiproliferative activity against human Granta-519 cells assessed as inhibition of cell growth incubated for 72 hrs by MTS assay; assay type: functional, cell-based; settings: Granta-519, 72 h
CAPAN-1 = experiment: Antiproliferative activity against human CAPAN-1 cells assessed as inhibition of cell growth incubated for 72 hrs by MTS assay; assay type: functional, cell-based; settings: CAPAN-1, 72 h
Granta-519 [4] = experiment: Induction of apoptosis in human Granta-519 cells assessed as late apoptotic cells at 2000 nM incubated for 48 hrs by Annexin-V-FITC/propidium iodide staining based flow cytometry (reference value: 3.07 %); assay type: functional
Granta-519 [5] = experiment: Induction of apoptosis in human Granta-519 cells assessed as necrotic cells at 2000 nM incubated for 48 hrs by Annexin-V-FITC/propidium iodide staining based flow cytometry (reference value: 0.429 %); assay type: functional
Granta-519 [6] = experiment: Induction of apoptosis in human Granta-519 cells assessed as early apoptotic cells at 2000 nM incubated for 48 hrs by Annexin-V-FITC/propidium iodide staining based flow cytometry (reference value: 3.75 %); assay type: functional
Granta-519 [7] = experiment: Induction of cell cycle arrest in human Granta-519 cells assessed as accumulation of cells at G1 phase at 2000 nM incubated for 24 hrs by propidium iodide staining based flow cytometry (reference value: 45.83 %); assay type: functional
NCI-H446 = experiment: Antiproliferative activity against human NCI-H446 cells assessed as inhibition of cell growth incubated for 72 hrs by MTS assay; assay type: functional, cell-based; settings: NCI-H446, 72 h
HT-29 = experiment: Antiproliferative activity against human HT-29 cells assessed as inhibition of cell growth incubated for 72 hrs by MTS assay; assay type: functional, cell-based; settings: HT-29, 72 h
HCT-116 = experiment: Antiproliferative activity against human HCT-116 cells assessed as inhibition of cell growth incubated for 72 hrs by MTS assay; assay type: functional, cell-based; settings: HCT-116, 72 h

C[C@@H]1COCCN1c1cc(C2(S(C)(=O)=O)CC2)nc(-c2cccc3[nH]ccc23)n1 showed an IC50 (PC-3) of 8430 nM, an IC50 (DLD-1) of 3470 nM and an IC50 (OCI-Ly10) of 1030 nM. The viability at 2 µM (Granta-519 [1]) was 80.6%, the IC50 (LoVo) was 850 nM and the Activity (Granta-519 [2]) was 61.62%. For the same molecule, the IC50 (A2780) was 460 nM, the IC50 (SUD4) was 2380 nM and the IC50 (Granta-519 [3]) was 500 nM. For the same molecule, the IC50 (CAPAN-1) was 7050 nM, the Activity (Granta-519 [4]) was 9.46% and the Activity (Granta-519 [5]) was 0.742%. The Activity (Granta-519 [6]) was 9.18%, the Activity (Granta-519 [7]) was 35.65% and the IC50 (NCI-H446) was 3900 nM. It also gave an IC50 (HT-29) of 2940 nM and an IC50 (HCT-116) of 1470 nM.
